For 1 compound, max non-pyrogenic dose results are on record in US20170072033A1, “LIPOSOMAL COMPOSITIONS FOR MUCOSAL DELIVERY” (GlaxoSmithKline Biologicals, SA, priority 2014, published 2017).

The series in a line: Rabbit pyrogen test. As to conditions: ng CRX-601/kg animal body weight. As to the method: The test was performed at Pacific Biolabs (Hercules, Calif.) as per their SOP 16E-02, which follows procedures outlined in USP<151>.

Consider `CCCCCCCCCCC[C@H](CC(=O)N[C@H]1[C@H](OC[C@H](NC(=O)C[C@@H](CCCCCCCCCCC)OCCCCCCCCCC)C(=O)O)O[C@H](CO)[C@@H](OP(=O)(O)O)[C@@H]1OC(=O)C[C@@H](CCCCCCCCCCC)OCCCCCCCCCC)OCCCCCCCCCC` [CRX-601], for which the max non-pyrogenic dose was found to be 0.0025 µg/kg.
